The values below come from US20060281719A1, “Oestrogen-17-sulphamates as inhibitors of steroid sulphatase” (priority 2000, published 2006).

Series [1] in a line: Plate assay % inhibition. Type of series: cell-based. The note with it: -ve % means stimulation.
The target in series [2] is T1, oestrone sulphatase (E1-STS) (Homo sapiens, UniProt P08842).
T1 sequence (P08842 22-583): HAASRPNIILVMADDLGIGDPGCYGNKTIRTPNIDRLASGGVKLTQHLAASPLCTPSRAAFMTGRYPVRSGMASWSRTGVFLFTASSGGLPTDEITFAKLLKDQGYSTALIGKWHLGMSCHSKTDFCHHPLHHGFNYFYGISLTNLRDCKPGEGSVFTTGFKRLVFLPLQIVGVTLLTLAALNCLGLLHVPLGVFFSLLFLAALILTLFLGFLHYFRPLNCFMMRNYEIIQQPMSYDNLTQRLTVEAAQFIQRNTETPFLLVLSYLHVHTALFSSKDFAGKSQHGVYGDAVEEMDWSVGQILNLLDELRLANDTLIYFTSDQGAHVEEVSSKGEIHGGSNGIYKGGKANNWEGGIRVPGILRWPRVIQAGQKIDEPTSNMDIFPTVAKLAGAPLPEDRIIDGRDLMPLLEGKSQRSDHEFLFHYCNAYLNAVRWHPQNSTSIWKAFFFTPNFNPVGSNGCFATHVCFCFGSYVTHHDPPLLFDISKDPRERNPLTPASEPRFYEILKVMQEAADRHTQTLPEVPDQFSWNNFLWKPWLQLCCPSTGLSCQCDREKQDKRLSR
Briefly: Inhibition of steroid sulphatase activity in placental microsomes. Type of series: biochemical. The note with it: for inhibition at 0.01 µM / inhibition at 1 µM: read-out: Placental Microcsomes % inhibition. More on the design: from tissue; host or cells: human term placenta (microsomal preparation).
Description: Inhibition of Steroid Sulphatase Activity in Placental Microsomes
Sulphatase-positive human placenta from normal term pregnancies are thoroughly minced with scissors and washed once with cold phosphate buffer (pH 7.4, 50 mM) then re-suspended in cold phosphate buffer (5 ml/g tissue). Homogenisation is accomplished with an Ultra-Turrax homogeniser, using three 10 second bursts separated by 2 minute cooling periods in ice. Nuclei and cell debris are removed by centrifuging (4° C.) at 2000 g for 30 minutes and portions (2 ml) of the supernatant are stored at 20° C.
Incubations (1 ml) are carried out using a protein concentration of 100 mg/ml, substrate concentration of 20 mM [6,7-3H]oestrone-3-sulphate (specific activity 60 Ci/mmol from New England Nuclear, Boston, Mass., U.S.A.) and an incubation time of 20 minutes at 37° C. If necessary eight concentrations of compounds are employed: 0 (i.e. control); 0.05 mM; 0.1 mM; 0.2 mM; 0.4 mM; 0.6 mM; 0.8 mM; 1.0 mM. After incubation each sample is cooled and the medium (1 ml) was pipetted into separate tubes containing [14C]oestrone (7×10^3 dpm) (specific activity 97 Ci/mmol from Amersham International Radiochemical Centre, Amersham, U.K.). The mixture is shaken thoroughly for 30 seconds with toluene (5 ml). […] A portion (2 ml) of the organic phase was removed, evaporated and the 3H and 14C content of the residue determined by scintillation spectrometry. The mass of oestrone-3-sulphate hydrolysed is calculated from the 3H counts obtained (corrected for the volumes of the medium and organic phase used, and for recovery of [14C]oestrone added) and the specific activity of the substrate.

For series [3], the system named is MCF-7 breast cancer cells. Briefly: Growth inhibition of MCF-7 breast cancer cells. Type of series: cell-based, human.
For series [4], the target named is T1, oestrone sulphatase (E1-STS). Briefly: Inhibition of steroid sulphatase (E1-STS) activity in intact MCF-7 breast cancer cells. Type of series: cell-based.

Where “and” joins values, the source holds several entries; their conditions need not be identical. Equal values may be shown once. Read-outs that look alike come from different tables or passages of the source.

Consider `COc1cc2c(cc1OS(N)(=O)=O)CCC1C2CCC2(C)C1CCC2(O)Cc1ccccc1` (stereo not shown) [BLE01018], for which the inhibition at 0.1 µM in series [1] (0.1 μM) was -19%. In addition, the inhibition at 1 µM in series [1] (1 μM) is -12%.

For `CN(C)S(=O)(=O)O[C@@H]1CCC2C3CCc4cc(OCc5ccccc5)ccc4C3CC[C@@]21C` (stereo partly shown), the melting point is 82 to 86 °C (dec.).

Regarding `CCCCCN(CCCCC)S(=O)(=O)O[C@@H]1CC[C@H]2[C@@H]3CCc4cc(O)ccc4[C@H]3CC[C@]12C` [BLE00082, 3-Hydroxyestra-1,3,5(10)-trien-17α-O—(N,N-dipentyl)sulfamate], the “Plate assay % inhibition” value in series [1] (1 μM) is on record as 24%.

As to `CN(C)S(=O)(=O)O[C@H]1CCC2C3CCc4cc(O)ccc4C3CC[C@@]21C` (stereo partly drawn) [BLE99067, 3-Hydroxyestra-1,3,5(10)-trien-17β-O—(N,N-dimethyl)sulfamate], the melting point lay in the range of 170 to 173 °C. For the same compound, the inhibition at 0.01 µM in series [2] (10 nM, -ve % means stimulation) was -0.1%. Further, the inhibition at 1 µM in series [2] (1 μM, -ve % means stimulation) was determined as 8.7%. In series [1] (0.1 μM), the inhibition at 0.1 µM is -5%. For the same compound, the inhibition at 1 µM in series [1] (1 μM) is -1%. In addition, the inhibition at 10 µM in series [1] (10 μM) is 50%.

For `C[C@]12CC[C@@H]3c4ccc(OS(N)(=O)=O)cc4CC[C@H]3[C@@H]1CC[C@@H]2O` [BLE00084], the “Plate assay % inhibition” value stood at 4% in series [1] (0.1 μM) and 23% in series [1] (10 μM).

Turning to `CC(=O)NS(=O)(=O)O[C@H]1CCC2C3CCc4cc(O)ccc4C3CC[C@@]21C` (stereo partly drawn) [BLE99058, 3-Hydroxyestra-1,3,5(10)-trien-17β-O-(N-acetyl)sulfamate], the melting point was 130 to 134 °C (dec.). Besides, the inhibition at 0.01 µM in series [2] (10 nM, -ve % means stimulation) was 0.9%. The inhibition at 1 µM in series [2] (1 μM, -ve % means stimulation) came out at 7.8%.

Take `C[C@]12CCC3c4ccc(O)cc4CCC3C1CC[C@H]2OS(=O)(=O)N(Cc1ccccc1)Cc1ccccc1` (stereo partly drawn) [BLE99066, 3-Hydroxyestra-1,3,5(10)-trien-17α-O—(N,N-dibenzyl)sulfamate]: the melting point was in the range of 57 to 60 °C. Also, the inhibition at 0.01 µM in series [2] (10 nM, -ve % means stimulation) amounted to 1.4%. Moreover, the inhibition at 1 µM in series [2] (1 μM, -ve % means stimulation) amounted to 4.5%. Moreover, the inhibition at 0.1 µM in series [1] (0.1 μM) was determined as 11%. In addition, the inhibition at 1 µM in series [1] (1 μM) came to 5%. For the same compound, in series [1] (10 μM), the inhibition at 10 µM is 27%.

In the case of `CCCCCN(CCCCC)S(=O)(=O)O[C@H]1CCC2C3CCc4cc(OS(N)(=O)=O)ccc4C3CC[C@@]21C` (stereo partly drawn) [BLE99074, 3-O-Sulfamoyl-estra-1,3,5(10)-trien-17β-O—(N,N-dipentyl)sulfamate], the melting point fell in the range of 105 to 107 °C. Moreover, in series [2] (1 μM, -ve % means stimulation), the inhibition at 1 µM was 23.7%.

As to `C[C@]12CCC3c4ccc(OCc5ccccc5)cc4CCC3C1CC[C@H]2OS(=O)(=O)N(Cc1ccccc1)Cc1ccccc1` (stereo partly shown), the melting point was in the range of 115 to 116 °C.

`CC1=C2CCC3c4ccc(OS(N)(=O)=O)cc4CCC3C2CC1` (stereo not shown) came in with a melting point of 172 to 176 °C.

Regarding `CCCCCN(CCCCC)S(=O)(=O)O[C@@H]1CC[C@H]2[C@@H]3CCc4cc(OS(N)(=O)=O)ccc4[C@H]3CC[C@]12C` [BLE00083B, 3-O-Sulfamoyl-estra-1,3,5(10)-trien-17α-O—(N,N-dipentyl)sulfamate], the “Plate assay % inhibition” value in series [1] (0.1 μM) was 8%; in series [1] (10 μM) it was 24%.

`COc1cc2c(cc1O)CCC1C2CC[C@@]2(C)C1CC[C@@]2(O)Cc1ccccc1` (stereo partly shown) [BLE01014]: the “Plate assay % inhibition” value in series [1] (0.1 μM) and in series [1] (1 μM) was −14% each time.

For `C[C@]12CCC3c4ccc(OCc5ccccc5)cc4CCC3C1CC[C@H]2OS(N)(=O)=O` (stereo partly shown), the melting point is 91 to 93 °C.

As to `CC(=O)NS(=O)(=O)O[C@H]1CCC2C3CCc4cc(OS(N)(=O)=O)ccc4C3CC[C@@]21C` (stereo partly drawn) [BLE99065, 3-O-Sulfamoyl-estra-1,3,5(10)-trien-17β-O-(N-acetyl)sulfamate], the melting point is 76 to 80 °C (dec.). Besides, the inhibition at 0.01 µM in series [2] (10 nM, -ve % means stimulation) came to 9.8%. The inhibition at 1 µM in series [2] (1 μM, -ve % means stimulation) was 91%. Besides, the inhibition at 0.1 µM in series [1] (0.1 μM) was 7%. Also, the inhibition at 1 µM in series [1] (1 μM) amounted to 5%. Also, the inhibition at 10 µM in series [1] (10 μM) is 23%.

`CN(C)S(=O)(=O)O[C@H]1CCC2C3CCc4cc(OCc5ccccc5)ccc4C3CC[C@@]21C` (stereo partly shown): the melting point fell in the range of 117 to 121 °C.

Take `C[C@]12CCC3c4ccc(O)cc4CCC3C1CC[C@@H]2OS(=O)(=O)N(Cc1ccccc1)Cc1ccccc1` (stereo partly drawn) [BLE99060, 3-Hydroxyestra-1,3,5(10)-trien-17β-O—(N,N-dibenzyl)sulfamate]: the melting point lay within 60 to 63 °C. Moreover, the inhibition at 0.01 µM in series [2] (10 nM, -ve % means stimulation) was -3.2%. Also, the inhibition at 1 µM in series [2] (1 μM, -ve % means stimulation) turned out to be 1.36%.

`CCCCCN(CCCCC)S(=O)(=O)O[C@H]1CCC2C3CCc4cc(O)ccc4C3CC[C@@]21C` (stereo partly drawn) [BLE99073, 3-Hydroxyestra-1,3,5(10)-trien-17β-O—(N,N-dipentyl)sulfamate] had a melting point of 93 to 96 °C. In series [2], the inhibition at 0.01 µM amounted to 1.2% and the inhibition at 1 µM was -11.8%.

As for `CN(C)S(=O)(=O)O[C@H]1CC[C@H]2[C@@H]3CCc4cc(OS(N)(=O)=O)ccc4[C@H]3CC[C@]12C` [BLE99069, 3-O-Sulfamoyl-estra-1,3,5(10)-trien-17β-O—(N,N-dimethyl)sulfamate], the “Placental Microcsomes % inhibition” value in series [2] (10 nM, -ve % means stimulation) was 30.3^1%; in series [2] (1 μM, -ve % means stimulation) it was 96.3^1%. Also, the “Plate assay % inhibition” value stood at 3% in series [1] (0.1 μM) and 10% in series [1] (1 μM).

`C[C@]12CCC3c4ccc(OS(N)(=O)=O)cc4CCC3C1CC[C@H]2OS(=O)(=O)N(Cc1ccccc1)Cc1ccccc1` (stereo partly drawn) [BLE99068, 3-O-Sulfamoyl-estra-1,3,5(10)-trien-17α-O—(N,N-dibenzyl)sulfamate]: the inhibition at 0.01 µM in series [2] (10 nM, -ve % means stimulation) was found to be 4.9%. The inhibition at 1 µM in series [2] (1 μM, -ve % means stimulation) is 58.2%; in series [1] (1 μM) it was -1%. Besides, the inhibition at 0.1 µM in series [1] (0.1 μM) is -18%. The inhibition at 10 µM in series [1] (10 μM) was 19%.

Consider `COc1cc2c(cc1O)CCC1C2CC[C@@]2(C)C1CC[C@@]2(O)Cc1ccc(C(C)(C)C)cc1` (stereo partly shown) [BLE01008], for which the “Plate assay % inhibition” value in series [1] (0.1 μM) is recorded as −12%; in series [1] (1 μM), −15%.

On to `NS(=O)(=O)Oc1ccc2c3c(oc2c1)C(=O)c1ccccc1C3=O` [Compound 13, Benzo[b]naphtho[2,3-d]furan-6,11-dione 3-O-sulphamate], for which, in series [3], the “effect on MCF-7 cells (toxicity)” value was “kills the MCF-7 cells”. In addition, the “percentage growth inhibition of MCF-7 breast cancer cells” value in series [3] (0.1 μM) was “inactive”; in series [3] (1 μM), 41%; in series [3] (10 μM), 44%. Also, the “% Inhibition of E1-STS activity in MCF-7 cells” value in series [4] (0.1 μM) was 46.6 ± 4.5%; in series [4] (1 μM), 93.9 ± 0.8%; in series [4] (10 μM), 99% and 98.6 ± 0.3%.

With `C[C@]12CCC3c4ccc(OS(N)(=O)=O)cc4CCC3C1CC[C@@H]2OS(=O)(=O)N(Cc1ccccc1)Cc1ccccc1` (stereo partly drawn) [BLE99063, 3-O-Sulfamoyl-estra-1,3,5(10)-trien-17β-O—(N,N-dibenzyl)sulfamate], the melting point was 60 to 64 °C and 58 to 62 °C. Further, in series [2] (10 nM, -ve % means stimulation), the inhibition at 0.01 µM is -1.9%. In addition, the inhibition at 1 µM in series [2] (1 μM, -ve % means stimulation) is 38.2%.

As to `NS(=O)(=O)Oc1ccc(C(O)(c2ccc(OS(N)(=O)=O)cc2)C2CCCCC2)cc1` [Compound 25, 1-Cyclohexyl-1,1-di-(4-sulphamoyloxyphenyl)methanol], the melting point was 213 to 215 °C (dec.). Also, in series [4] (MCF7, 0.1 μM), the inhibition at 0.1 µM is < 10%. Also, in series [4] (MCF7, 1 μM), the inhibition at 1 µM stood at 27.4 ± 0.8%. Besides, in series [4] (MCF7, 10 μM), the inhibition at 10 µM amounted to 75.1 ± 2.8%.

For `COc1cc2c(cc1OS(N)(=O)=O)CCC1C2CCC2(C)C1CCC2(O)Cc1ccc(C(C)(C)C)cc1` (stereo not shown) [BLE01016], the inhibition at 0.1 µM in series [1] (0.1 μM) is -14%. In addition, in series [1] (1 μM), the inhibition at 1 µM was -10%. Also, the inhibition at 10 µM in series [1] (10 μM) was -3%.

`C[C@]12CCC3c4ccc(OCc5ccccc5)cc4CCC3C1CC[C@@H]2OS(N)(=O)=O` (stereo partly shown) registered a melting point of 108 to 109 °C.

As for `CC12CCC3c4ccc(OS(N)(=O)=O)cc4CCC3C1CCC2OS(N)(=O)=O` (stereo not shown) [BLE99031B], the inhibition at 0.1 µM in series [1] (0.1 μM) is 7%. The inhibition at 1 µM in series [1] (1 μM) came to 12%. The inhibition at 10 µM in series [1] (10 μM) was determined as 32%.

Consider `NS(=O)(=O)Oc1ccc(Sc2ccc(O)cc2)cc1` [Compound 16, 4′-hydroxy-thiodiphenyl-4-O-sulphamate], for which the “% Inhibition of E1-STS activity in placental microsomes” value in series [2] (10 μM) was 33.1 ± 1.7%; in series [2] (25 µM), 49.5 ± 0.1%; in series [2] (50 µM), 64.7 ± 0.9%; in series [2] (100 µM), 76.8 ± 0.4%. Moreover, the figures for the “% Inhibition of E1-STS activity in MCF-7 cells” value in series [4] (0.1 μM), in series [4] (1 μM) and in series [4] (10 μM) were 26.6 ± 4.3%, 83.9 ± 1.2% and 97.7 ± 0.4%, respectively.

`CC1=C2CCC3c4ccc(OS(N)(=O)=O)cc4CCC3C2CC1` (stereo not shown) [BLE00086]: the inhibition at 0.1 µM in series [1] (0.1 μM) came out at 8%. The inhibition at 1 µM in series [1] (1 μM) turned out to be 3%. The inhibition at 10 µM in series [1] (10 μM) came out at 14%.
